For test [1], the system named is peripheral blood mononuclear cells (PBMCs) and natural killer cells. The test can be described thus: Degranulation activity of innate immune cells (CD107a expression by FACS). Type of test: cell-based, human. The note with it: cells pretreated with ginsenoside, co-cultured with K562 or 721.221 target cell; compared to DMSO (vehicle)-treated group. How it is done:
Effect of ginsenoside F1 on degranulation activity of innate immune cells was measured by fluorescence activated cell sorter (FACS).
In detail, peripheral blood mononuclear cells (PBMCs) separated from the blood and purified natural killer cells were pretreated with ginsenoside, and then co-cultured with K562 cell or 721.221 cell which is a target cell of the above cells, respectively. Thereafter, the surfaces of the peripheral blood mononuclear cells and the natural killer cells were stained with fluorochrome-conjugated anti-CD3, anti-CD56, and anti-CD107a antibodies. Meanwhile, degranulation activity of peripheral blood mononuclear cells or natural killer cells is proportional to CD107a expression on cell surface, as shown in FIG. 1. Therefore, CD107a expression levels of the peripheral blood mononuclear cells and the natural killer cells were measured by a FACS machine.
For orientation: Flow cytometry measures light scatter and fluorescence of single cells or particles in a stream.

Test [2] has as its system natural killer cells co-cultured with K562 cell or 721.221 cell. The test can be described thus: Cell-killing activity of natural killer cells (cytolysis of europium-labeled target cells). Type of test: cell-based, human. To be noted: pretreated NK cells; NK:target ratio 5:1, 10:1, 20:1, 40:1; K562 or 721.221; compared to DMSO-treated group. As to the method: In order to examine whether ginsenoside F1 increases cell-killing activity of natural killer cells, cytolysis of target cells was measured.
(§1) In detail, peripheral blood mononuclear cells (PBMCs) separated from the blood and purified natural killer cells were pretreated with ginsenoside F1 or Rg3, and then co-cultured with K562 cell or 721.221 cell which is an europium-labeled target cells. The natural killer cell and the target cell were mixed at a ratio of 5:1, 10:1, 20:1, and 40:1, followed by culture. Meanwhile, intensity of fluorescence emitted from the target cell is proportional to cell-killing activity of natural killer cell. Therefore, a culture medium was separated by centrifugation, and then fluorescence emitted by cell lysis of the target cell was measured by using a microplate reader.

Test [3] relates to primary natural killer cells. Nature of the test: Cell-killing activity of primary natural killer cells (cytolysis of target cells). The note with it: for cytolysis of target cells: compared to DMSO-treated group. Format: cell-based, human.
Source text: as §1
Blood (50 ml) of a healthy donor was collected in a vacutainer cell preparation tube (BD Biosciences) containing sodium heparin. Thereafter, the blood was percoll-gradient centrifuged to recover a buffy coat which is a white thin layer consisted of platelets and white blood cells. Peripheral blood mononuclear cells obtained by washing this buffy coat with PBS were separated by using a human NK cell negative selection kit (Miltenyl Biotech). Part of the separated natural killer cells and a FACS buffer were mixed, and then purity of natural killer cells (CD3^−/CD16^+) and the number and ratio of CD56^dim/CD16^+, CD56^bright/CD16^−, and CD56^bright/CD16^+ were measured by using a FACS machine and fluorochrome-conjugated anti-CD3, anti-CD56, and […] antibodies. Natural killer cells with purity of 95% or more were used in experiments.
The primary natural killer cells separated by the method of Example 3-1 were used to examine whether ginsenoside F1 increases cell-killing activity of primary natural killer cells, in the same manner as in Example 2.

For test [4], the system named is primary natural killer cells. Nature of the test: Calcium flux assay by confocal live cell imaging. Format: cell-based, human. To be noted: activated with NKG2D antibody and 2B4 antibody; compared to ginsenoside Rg1. As to the method: To investigate a natural killer cell-based immune enhancement mechanism of ginsenoside F1 calcium flux assay of individual cells was performed by live cell imaging using confocal microscopy.
In detail, primary natural killer cells were purified (>97%) by the method of Example 3-1, and then treated with ginsenoside F1 or Rg1. For 30 seconds, a basal calcium level was measured, and then natural killer cells were activated using a combination of NKG2D antibody and 2B4 antibody, followed by calcium flux assay by confocal live cell imaging.
(In general: Calcium assays in cells follow changes in intracellular calcium, usually with a dye or a luminescent sensor.)

Test [5] relates to primary natural killer cells. Nature of the test: Analysis of cell-killing factors (perforin, granzyme B) by quantitative RT-PCR. Type of test: cell-based, human. The note with it: 12 hours after treatment. As to the method:
To investigate a cell-killing activation mechanism of natural killer cells by ginsenoside F1, primary natural killer cells purified by the method of Example 3-1 were treated with ginsenoside F1 or Rg1. 12 hours later, total RNA was isolated, and then expressions of perforin and granzyme B which are representative cell-killing factors of natural killer cells were analyzed by quantitative RT-PCR.
In detail, total RNA was isolated from natural killer cells using a TRIzol reagent, and cDNA was synthesized using primers of unknown sequences, which were manufactured by Toyobo, and reverse transcriptase. Thereafter, quantitative RT-PCR was performed using primers of the following Table 1 and SYBR PCR Master Mix (Toyobo).
PCR conditions are the same as in the following Table 2.

Test [6] has as its system natural killer cell-sensitive RMA-S (MHC class I-) cells. Nature of the test: In vivo natural killer cell-based selective reduction of RMA-S (RMA-S/RMA target cell system). The note with it: mice pretreated at 25 mg/kg; for removability (selective reduction rate of RMA-S): RMA-S/RMA mixture intraperitoneal, 8 hours later, FACS. As to the method: To evaluate effectiveness of in vivo cell-killing activity of ginsenoside F1, natural killer cell-sensitive RMA-S (MHC class I^−) and natural killer cell-resistant RMA (MHC class I^+) target cell systems were used.
In detail, mice were pretreated with ginsenoside F1 at a dose of 25 mg/kg. A mixture of RMA-S/RMA cells, each cell labeled with different fluorescence intensity, was administered into the mice via intraperitoneal injection. 8 hours later, a selective reduction rate of RMA-S by natural killer cells was analyzed by FACS.

Three compounds from patent US10682366B2, “Method for enhancing immunity using ginsenoside F1 as an active ingredient” (INTELLIGENT SYNTHETIC BIOLOGY CENTER, priority 2016, dated 2020) can be followed below.

Take `CC(C)=CCC[C@](C)(O[C@@H]1O[C@H](CO)[C@@H](O)[C@H](O)[C@H]1O)[C@H]1CC[C@]2(C)[C@@H]1[C@H](O)C[C@@H]1[C@@]3(C)CC[C@H](O)C(C)(C)[C@@H]3[C@@H](O)C[C@]12C` [ginsenoside F1]: the CD107a expression entry in test [1] is given as “highest CD107a expression”. The “cytolysis of target cells” value in test [2] is reported as “high cytolysis of target cells”. In addition, in test [3], the “cytolysis of target cells compared to the ginsenoside Rg3 and Rg1-treated group” value is recorded as “remarkably excellent cytolysis”; the “cytolysis of target cells” value is “high cytolysis of target cells”. Besides, the “calcium flux of natural killer cells” value in test [4] is reported as “more effectively promotes calcium flux”. Moreover, in test [5], the “expression level of granzyme B compared to ginsenoside Rg1-treated group” value is given as “high expression level of granzyme B” and the “expression level of perforin compared to ginsenoside Rg1-treated group” value is given as “high expression level of perforin”. Also, in test [5] (compared to non-treated group), the “expression level of granzyme B” value is listed as “about 1.5 times” and the “expression level of perforin” value is listed as “about 2 times”. In test [6] (8 hours), the “RMA-S reduction effect relative to non-treated group” value is reported as 2 times. Also, in test [6], the “removability (selective reduction rate of RMA-S)” value is on record as ≥ 70%.
For the compound `CC(C)=CCC[C@](C)(O[C@@H]1O[C@H](CO)[C@@H](O)[C@H](O)[C@H]1O)[C@H]1CC[C@]2(C)[C@@H]1[C@H](O)C[C@@H]1[C@@]3(C)CC[C@H](O)C(C)(C)[C@@H]3[C@@H](O[C@@H]3O[C@H](CO)[C@@H](O)[C@H](O)[C@H]3O)C[C@]12C` [ginsenoside Rg1, reference compound], the “cytolysis of target cells” value in test [3] is “high cytolysis of target cells”. Also, the “removability (selective reduction rate of RMA-S)” value in test [6] was “about 52%”.
As for `CC(C)=CCC[C@](C)(O)[C@H]1CC[C@]2(C)[C@@H]1[C@H](O)C[C@@H]1[C@@]3(C)CC[C@H](O[C@@H]4O[C@H](CO)[C@@H](O)[C@H](O)[C@H]4O[C@@H]4O[C@H](CO)[C@@H](O)[C@H](O)[C@H]4O)C(C)(C)[C@@H]3CC[C@]12C` [ginsenoside Rg3, reference compound], the CD107a expression result in test [1] was “increased”. Also, the “cytolysis of target cells” value in test [2] and in test [3] was “high cytolysis of target cells” throughout.
